Reference: PubChem BioAssay AID1963850 (Molecular Pharmacology Branch, DTP, NCI, 2024)

Tested on: 192522-019-R-J2-PDC complex tumor spheroid viability
Assay: Anticancer human tumor 192522-019-R-J2-PDC patient-derived colon adenocarcinoma cell line growth inhibition [POLQ]
Settings: for IC50: curve of first compound; for viability, T/C: stronger effect = lower value
How it was run: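 Three-cell-type spheroids modelling solid tumor plus stroma served as the readout system; POL inhibitors were tested individually and in combination, concentration ranges set by clinical Cmax where known.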

[1] = second compound 0.0316 µM, first compound 0.0316 µM
[2] = second compound 0.0316 µM, first compound 0.1 µM
[3] = second compound 0.0316 µM, first compound 0.316 µM
[4] = second compound 0.0316 µM, first compound 1 µM
[5] = second compound 0.0316 µM, first compound 3.16 µM
[6] = second compound 0.0316 µM, first compound 10 µM
[7] = second compound 0.1 µM, first compound 0.0316 µM
[8] = second compound 0.1 µM, first compound 0.1 µM
[9] = second compound 0.1 µM, first compound 0.316 µM
[10] = second compound 0.1 µM, first compound 1 µM
[11] = second compound 0.1 µM, first compound 3.16 µM
[12] = second compound 0.1 µM, first compound 10 µM
[13] = second compound 0.316 µM, first compound 0.0316 µM
[14] = second compound 0.316 µM, first compound 0.1 µM
[15] = second compound 0.316 µM, first compound 0.316 µM
[16] = second compound 0.316 µM, first compound 1 µM
[17] = second compound 0.316 µM, first compound 3.16 µM
[18] = second compound 0.316 µM, first compound 10 µM
[19] = second compound 1 µM, first compound 0.0316 µM
[20] = second compound 1 µM, first compound 0.1 µM
[21] = second compound 1 µM, first compound 0.316 µM
[22] = second compound 1 µM, first compound 1 µM
[23] = second compound 1 µM, first compound 3.16 µM
[24] = second compound 1 µM, first compound 10 µM
[25] = second compound 3.16 µM, first compound 0.0316 µM
[26] = second compound 3.16 µM, first compound 0.1 µM
[27] = second compound 3.16 µM, first compound 0.316 µM
[28] = second compound 3.16 µM, first compound 1 µM
[29] = second compound 3.16 µM, first compound 3.16 µM
[30] = second compound 3.16 µM, first compound 10 µM
[31] = second compound 10 µM, first compound 0.0316 µM
[32] = second compound 10 µM, first compound 0.1 µM
[33] = second compound 10 µM, first compound 0.316 µM
[34] = second compound 10 µM, first compound 1 µM
[35] = second compound 10 µM, first compound 3.16 µM
[36] = second compound 10 µM, first compound 10 µM
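Further: spheroids exposed to drugs for seven days before reading.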
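Wherever viability, T/C is given: 100% = DMSO vehicle control viability in luminescence.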

## C#Cc1c(F)ccc2cc(O)cc(-c3ncc4c(N5CC6CCC(C5)N6)nc(OCC56CCCN5CC(F)C6)nc4c3F)c12 (centres undefined) + Nc1ccc(C#CCN(C(=O)Cc2ncc(C(F)(F)F)cc2C(F)(F)F)c2ccc(F)cc2)nn1
Second compound 0.0316 µM
  IC50: > 10000 nM
Second compound 0.1 µM
  IC50: > 10000 nM
Second compound 0.316 µM
  IC50: > 10000 nM
Second compound 1 µM
  IC50: > 10000 nM
Second compound 3.16 µM
  IC50: > 10000 nM
Second compound 10 µM
  IC50: > 10000 nM
[1]
  viability, T/C: 93.8%
[2]
  viability, T/C: 88.8%
[3]
  viability, T/C: 78.2%
[4]
  viability, T/C: 80.9%
[5]
  viability, T/C: 67.9%
[6]
  viability, T/C: 68.5%
[7]
  viability, T/C: 92.8%
[8]
  viability, T/C: 89.3%
[9]
  viability, T/C: 72.7%
[10]
  viability, T/C: 80.8%
[11]
  viability, T/C: 74.5%
[12]
  viability, T/C: 73.3%
[13]
  viability, T/C: 88.8%
[14]
  viability, T/C: 82.3%
[15]
  viability, T/C: 75.3%
[16]
  viability, T/C: 69.7%
[17]
  viability, T/C: 68.2%
[18]
  viability, T/C: 76.2%
[19]
  viability, T/C: 89.5%
[20]
  viability, T/C: 76.2%
[21]
  viability, T/C: 78.7%
[22]
  viability, T/C: 77.8%
[23]
  viability, T/C: 78%
[24]
  viability, T/C: 70.7%
[25]
  viability, T/C: 97.9%
[26]
  viability, T/C: 81.7%
[27]
  viability, T/C: 71.7%
[28]
  viability, T/C: 73.2%
[29]
  viability, T/C: 78.4%
[30]
  viability, T/C: 70.4%
[31]
  viability, T/C: 91.9%
[32]
  viability, T/C: 79.5%
[33]
  viability, T/C: 80.2%
[34]
  viability, T/C: 77.2%
[35]
  viability, T/C: 73.7%
[36]
  viability, T/C: 79.8%

## CC1COCCN1c1cc(C2(O)CC3CCC(C2)O3)c2cnn(-c3ccn[nH]3)c2n1 (centres undefined) + Nc1ccc(C#CCN(C(=O)Cc2ncc(C(F)(F)F)cc2C(F)(F)F)c2ccc(F)cc2)nn1
Second compound 0.0316 µM
  IC50: 259 nM
Second compound 0.1 µM
  IC50: 265 nM
Second compound 0.316 µM
  IC50: 263 nM
Second compound 1 µM
  IC50: 276 nM
Second compound 3.16 µM
  IC50: 331 nM
Second compound 10 µM
  IC50: 284 nM
[1]
  viability, T/C: 95.5%
[2]
  viability, T/C: 76.8%
[3]
  viability, T/C: 44.7%
[4]
  viability, T/C: 34.4%
[5]
  viability, T/C: 44%
[6]
  viability, T/C: 50.1%
[7]
  viability, T/C: 99.2%
[8]
  viability, T/C: 85.3%
[9]
  viability, T/C: 42.2%
[10]
  viability, T/C: 37.6%
[11]
  viability, T/C: 41.3%
[12]
  viability, T/C: 53%
[13]
  viability, T/C: 97.2%
[14]
  viability, T/C: 80.5%
[15]
  viability, T/C: 44.3%
[16]
  viability, T/C: 35.8%
[17]
  viability, T/C: 44.7%
[18]
  viability, T/C: 48.6%
[19]
  viability, T/C: 97.1%
[20]
  viability, T/C: 81.8%
[21]
  viability, T/C: 45.9%
[22]
  viability, T/C: 36.9%
[23]
  viability, T/C: 45.1%
[24]
  viability, T/C: 51.8%
[25]
  viability, T/C: 97.6%
[26]
  viability, T/C: 82.3%
[27]
  viability, T/C: 51.2%
[28]
  viability, T/C: 36.6%
[29]
  viability, T/C: 46.6%
[30]
  viability, T/C: 49.6%
[31]
  viability, T/C: 92.4%
[32]
  viability, T/C: 74.8%
[33]
  viability, T/C: 47.8%
[34]
  viability, T/C: 36.4%
[35]
  viability, T/C: 51.9%
[36]
  viability, T/C: 50%
